As usually defined, the IC50 is the concentration needed to halve the response being measured.

The values that follow come from patent publication US20200016159A1, “N3-CYCLICALLY SUBSTITUTED THIENOURACILS AND USE THEREOF” (Bayer Aktiengesellschaft, priority 2016, published 2020).

In this assay the target is T1, human adenosine A2b receptor (Homo sapiens, UniProt P29275).
T1 sequence (P29275 1-332): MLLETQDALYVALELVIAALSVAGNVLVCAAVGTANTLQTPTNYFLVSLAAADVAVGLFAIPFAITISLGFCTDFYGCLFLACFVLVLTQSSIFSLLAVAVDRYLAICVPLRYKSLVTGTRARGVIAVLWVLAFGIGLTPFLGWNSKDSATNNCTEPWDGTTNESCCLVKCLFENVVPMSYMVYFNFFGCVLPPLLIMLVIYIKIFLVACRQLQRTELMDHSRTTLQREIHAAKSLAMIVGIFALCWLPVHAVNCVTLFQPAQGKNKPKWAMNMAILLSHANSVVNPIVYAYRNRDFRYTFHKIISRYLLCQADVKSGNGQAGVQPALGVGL
In words: Cellular in vitro reporter gene test for A2b receptor activity (antagonism of NECA). The format is cell-based. The arrangement: expressed in transfected cells; host or cells: CHO-K1 (Chinese hamster ovary) with CRE-luciferase reporter. The note with it: recombinant CHO-K1 cells, CRE-luciferase reporter, co-incubation with EC50 concentration of NECA, 3 hours. The method in brief: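 Antagonism measured as block of NECA-induced, cAMP/CRE-dependent luciferase expression in recombinant A2b CHO-K1 cells. NECA used at the EC50 set in a pre-experiment on each test day; luminescence detected after 3 h. Reported as IC50, partly averaged and rounded to two significant figures.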
(In a reporter assay the amount or activity of a reporter protein is the signal.)
Take `COCCn1c(=O)n(C2CC(F)(F)C2)c(=O)c2c(C)c(CN3CCNC3=O)sc21` [Example 125, 3-(3,3-Difluorocyclobutyl)-1-(2-methoxyethyl)-5-methyl-6-[(2-oxoimidazolidin-1-yl)methyl]thieno[2,3-d]pyrimidine-2,4(1H,3H)-dione]: the IC50 is 33 nM.

Regarding `Cc1c(Cn2[nH]ccc2=O)sc2c1c(=O)n(C1CC1)c(=O)n2CCC(F)(F)F` [Example 200, 3-Cyclopropyl-5-methyl-6-[(5-oxo-2,5-dihydro-H-pyrazol-1-yl)methyl]-1-(3,3,3-trifluoropropyl)thieno[2,3-d]pyrimidine-2,4(1H,3H)-dione], the IC50 worked out at 55 nM.

With `Cc1c(Cn2[nH]ccc2=O)sc2c1c(=O)n(C1CC1C)c(=O)n2CCOC(F)(F)F` (single isomer, unassigned) [Example 274, 5-Methyl-3-(2-methylcyclopropyl)-6-[(5-oxo-2,5-dihydro-1H-pyrazol-1-yl)methyl]-1-[2-(trifluoromethoxy)ethyl]thieno[2,3-d]pyrimidine-2,4(1H,3H)-dione], the IC50 stood at 86 nM.

Take `Cc1c(CN2CCNC2=NC#N)sc2c1c(=O)n(C1(C)CC1)c(=O)n2CCC(F)(F)F` [Example 57, [1-{[5-Methyl-3-(1-methylcyclopropyl)-2,4-dioxo-1-(3,3,3-trifluoropropyl)-1,2,3,4-tetrahydrothieno[2,3-d]pyrimidin-6-yl]methyl}imidazolidin-2-ylidene]cyanamide]: the IC50 turned out to be 4.4 nM.

As to `Cc1c(CN2CCNC2=NC#N)sc2c1c(=O)n(C1CC1C)c(=O)n2CCOC(F)(F)F` (single isomer, unassigned) [Example 265, [1-({5-Methyl-3-(2-methylcyclopropyl)-2,4-dioxo-1-[2-(trifluoromethoxy)ethyl]-1,2,3,4-tetrahydrothieno[2,3-d]pyrimidin-6-yl}methyl)imidazolidin-2-ylidene]cyanamide], the IC50 came out at 1.3 nM.

For `Cc1c(CN2CCNC(=O)C2=O)sc2c1c(=O)n(C1CC(F)(F)C1)c(=O)n2CCC(F)(F)F` [Example 123, 3-(3,3-Difluorocyclobutyl)-6-[(2,3-dioxopiperazin-1-yl)methyl]-5-methyl-1-(3,3,3-trifluoropropyl)thieno[2,3-d]pyrimidine-2,4(1H,3H)-dione], the half-inhibitory concentration (IC50) was 10 nM.

As to `Cc1c(CN2CCNC2=O)sc2c1c(=O)n(C1CC1C)c(=O)n2CCCC(F)(F)F` (single isomer, unassigned) [Example 243, 5-Methyl-3-(2-methylcyclopropyl)-6-[(2-oxoimidazolidin-1-yl)methyl]-1-(4,4,4-trifluorobutyl)thieno[2,3-d]pyrimidine-2,4(1H,3H)-dione], the IC50 was 8.4 nM.

Consider `Cc1c(CN2CCNC2=O)sc2c1c(=O)n(C1CC1C)c(=O)n2CC(F)F` (racemic) [Example 234, 1-(2,2-Difluoroethyl)-5-methyl-3-(2-methylcyclopropyl)-6-[(2-oxoimidazolidin-1-yl)methyl]thieno[2,3-d]pyrimidine-2,4(1H,3H)-dione], for which the IC50 came out at 1.9 nM.

In the case of `Cc1c(CN2CCNC2=O)sc2c1c(=O)n(C1CC1)c(=O)n2CCC(F)(F)F` [Example 9, 3-Cyclopropyl-5-methyl-6-[(2-oxoimidazolidin-1-yl)methyl]-1-(3,3,3-trifluoropropyl)thieno[2,3-d]pyrimidine-2,4(1H,3H)-dione], the IC50 came out at 1.5 nM.

For `Cc1c(Cn2nc[nH]c2=O)sc2c1c(=O)n(C1(C)CC1)c(=O)n2CC1CCC1` [Example 62, 1-(Cyclobutylmethyl)-5-methyl-3-(1-methylcyclopropyl)-6-[(5-oxo-4,5-dihydro-1H-1,2,4-triazol-1-yl)methyl]thieno[2,3-d]pyrimidine-2,4(1H,3H)-dione], the IC50 stood at 65 nM.

On to `Cc1c(Cn2nc[nH]c2=O)sc2c1c(=O)n([C@H]1C[C@@H]1C)c(=O)n2CCC(F)(F)F` [Example 323, 5-Methyl-3-[(1S,2S)-2-methylcyclopropyl]-6-[(5-oxo-4,5-dihydro-1H-1,2,4-triazol-1-yl)methyl]-1-(3,3,3-trifluoropropyl)thieno[2,3-d]pyrimidine-2,4(1H,3H)-dione], for which the IC50 was 3.1 nM.

As to `CCC1(n2c(=O)c3c(C)c(Cn4nc[nH]c4=O)sc3n(CCC(F)(F)F)c2=O)CC1` [Example 107, 3-(1-Ethylcyclopropyl)-5-methyl-6-[(5-oxo-4,5-dihydro-1H-1,2,4-triazol-1-yl)methyl]-1-(3,3,3-trifluoropropyl)thieno[2,3-d]pyrimidine-2,4(1H,3H)-dione], the IC50 is 290 nM.

For `COC(=O)N=C1NCCN1Cc1sc2c(c1C)c(=O)n(C1CC1)c(=O)n2CCC(F)(F)F` [Example 12, Methyl [1-{[3-cyclopropyl-5-methyl-2,4-dioxo-1-(3,3,3-trifluoropropyl)-1,2,3,4-tetrahydrothieno[2,3-d]pyrimidin-6-yl]methyl}imidazolidin-2-ylidene]carbamate], the IC50 is 4.2 nM.

In the case of `COC(=O)N=C1NCCN1Cc1sc2c(c1C)c(=O)n(C1CC1C)c(=O)n2CCOC(F)(F)F` (single isomer, unassigned) [Example 269, Methyl [1-({5-methyl-3-(2-methylcyclopropyl)-2,4-dioxo-1-[2-(trifluoromethoxy)ethyl]-1,2,3,4-tetrahydrothieno[2,3-d]pyrimidin-6-yl}methyl)imidazolidin-2-ylidene]carbamate], the IC50 was determined as 2 nM.

On to `CCC1(n2c(=O)c3c(C)c(CN4CCNC4=O)sc3n(CCC(F)(F)F)c2=O)CC1` [Example 106, 3-(1-Ethylcyclopropyl)-5-methyl-6-[(2-oxoimidazolidin-1-yl)methyl]-1-(3,3,3-trifluoropropyl)thieno[2,3-d]pyrimidine-2,4(1H,3H)-dione], for which the IC50 was determined as 41 nM.

`Cc1c(CN2CCNC2=O)sc2c1c(=O)n(C1(C)CC1)c(=O)n2CCOC(F)(F)F` [Example 75, 5-Methyl-3-(1-methylcyclopropyl)-6-[(2-oxoimidazolidin-1-yl)methyl]-1-[2-(trifluormethoxy)ethyl]thieno[2,3-d]pyrimidine-2,4(1H,3H)-dione]: the IC50 amounted to 3.3 nM.

As for `Cc1c(CN2CCNC2=O)sc2c1c(=O)n(C1(C)CC1)c(=O)n2C` [Example 52, 1,5-Dimethyl-3-(1-methylcyclopropyl)-6-[(2-oxoimidazolidin-1-yl)methyl]thieno[2,3-d]pyrimidine-2,4(1H,3H)-dione], the IC50 worked out at 19 nM.

On to `CCCCn1c(=O)n(C2(C)CC2)c(=O)c2c(C)c(Cn3nc[nH]c3=O)sc21` [Example 55, 1-Butyl-5-methyl-3-(1-methylcyclopropyl)-6-[(5-oxo-4,5-dihydro-1H-1,2,4-triaiazol-1-yl)methyl]thieno[2,3-d]pyrimidine-2,4(1H,3H)-dione], for which the IC50 is 49 nM.

As for `COCCn1c(=O)n(C2CC2OC)c(=O)c2c(C)c(CN3CCNC3=O)sc21` (racemic) [Example 306, 3-(2-Methoxycyclopropyl)-1-(2-methoxyethyl)-5-methyl-6-[(2-oxoimidazolidin-1-yl)methyl]thieno[2,3-d]pyrimidine-2,4(1H,3H)-dione], the IC50 turned out to be 16 nM.

`Cc1c(CN2CCNC(=O)C2=O)sc2c1c(=O)n(C1COC1)c(=O)n2CCC(F)(F)F` [Example 133, 6-[(2,3-Dioxopiperazin-1-yl)methyl]-5-methyl-3-(oxetan-3-yl)-1-(3,3,3-trifluoropropyl)thieno[2,3-d]pyrimidine-2,4(1H,3H)-dione]: the IC50 came to 430 nM.
